Data from patent US8299065B2, “Antibacterial condensed thiazoles” (Biota Europe Ltd., priority 2007, dated 2012).
In brackets after ≈: the same amount, converted by molar mass.

Columns and labels:
[1] = test system: Staphylococcus epidermidis clinical isolates; assay: MIC testing, clinical isolates; format: cell-based; details: 10 clinical isolates
Procedure: (§1) Minimum Inhibitory Concentration (MIC) Testing Compounds of this invention were tested for antimicrobial activity by susceptibility testing in liquid or on solid media. MICs for compounds against each strain were determined by the broth microdilution or agar dilution method according to the guidelines of the Clinical Laboratories and Standards Institute, formerly the National Committee for Clinical Laboratory Standards (Clinical Laboratories and Standards Institute. Methods for Dilution Antimicrobial Susceptibility Tests for Bacteria That Grow Aerobically; Approved Standard—Seventh Edition. Document M7-A7. CLSI, Wayne, Pa., 2006; Clinical Laboratories and Standards Institute. Methods for Antimicrobial Susceptibility Testing of Anaerobic Bacteria; Approved Standard—Sixth Edition. Document M11-A6. CLSI, Wayne, Pa., 2004). Some of the Example compounds were also tested for activity against clinical isolates of various bacterial species.

[2] = test system: Streptococcus pneumoniae clinical isolates; assay: MIC testing, clinical isolates; format: cell-based; details: 10 clinical isolates
Procedure: as §1

[3] = test system: Enterococcus faecalis clinical isolates; assay: MIC testing, clinical isolates; format: cell-based; details: 10 clinical isolates
Procedure: as §1

[4] = test system: Propionibacterium acnes clinical isolates; assay: MIC testing, clinical isolates; format: cell-based; details: 5 clinical isolates
Procedure: as §1

[5] = test system: Enterococcus faecium clinical isolates; assay: MIC testing, clinical isolates; format: cell-based; details: 10 clinical isolates
Procedure: as §1

[6] = test system: Staphylococus aureus clinical isolates; assay: MIC testing, clinical isolates; format: cell-based; details: 10 clinical isolates
Procedure: as §1

[7] = test system: Streptococcus pyogenes clinical isolates; assay: MIC testing, clinical isolates; format: cell-based; details: 10 clinical isolates
Procedure: as §1

[8] = test system: Enterococcus faecalis ATCC 29212; assay: MIC testing against Enterococcus faecalis ATCC 29212; format: cell-based; details: ATCC29212, read-out: MICs against Enterococcus faecalis, Activity
Procedure: as §1, with “2004).” for “2004). Some of the Example compounds were also tested for activity against clinical isolates of various bacterial species.”

[9] = test system: Enterococcus faecium (VRE) ATCC 700221; assay: MIC testing, various bacteria; format: cell-based
Procedure: (§2) Minimum Inhibitory Concentration (MIC) Testing
as §1, with “Compounds” for “Minimum Inhibitory Concentration (MIC) Testing Compounds”, “2004).” for “2004). Some of the Example compounds were also tested for activity against clinical isolates of various bacterial species.”
(§3) Some of the Example compounds were also tested for activity against other bacterial species.

[10] = test system: Streptococcus pyogenes ATCC 51339; assay: MIC testing, various bacteria; format: cell-based; details: ATCC51339
Procedure: as §2
as §1, with “Compounds” for “Minimum Inhibitory Concentration (MIC) Testing Compounds”, “2004).” for “2004). Some of the Example compounds were also tested for activity against clinical isolates of various bacterial species.”
as §3

[11] = test system: Staphylococcus aureus ATCC 29213; assay: MIC testing, various bacteria; format: cell-based; details: ATCC29213
Procedure: as §2
as §1, with “Compounds” for “Minimum Inhibitory Concentration (MIC) Testing Compounds”, “2004).” for “2004). Some of the Example compounds were also tested for activity against clinical isolates of various bacterial species.”
as §3

[12] = test system: Staphylococcus epidermidis ATCC 12228; assay: MIC testing, various bacteria; format: cell-based; details: ATCC12228
Procedure: as §2
as §1, with “Compounds” for “Minimum Inhibitory Concentration (MIC) Testing Compounds”, “2004).” for “2004). Some of the Example compounds were also tested for activity against clinical isolates of various bacterial species.”
as §3

[13] = test system: Streptococcus mutans ATCC 35668; assay: MIC testing, various bacteria; format: cell-based; details: ATCC35668
Procedure: as §2
as §1, with “Compounds” for “Minimum Inhibitory Concentration (MIC) Testing Compounds”, “2004).” for “2004). Some of the Example compounds were also tested for activity against clinical isolates of various bacterial species.”
as §3

[14] = test system: Moraxella catarrhalis ATCC 25240; assay: MIC testing, various bacteria; format: cell-based; details: ATCC25240
Procedure: as §2
as §1, with “Compounds” for “Minimum Inhibitory Concentration (MIC) Testing Compounds”, “2004).” for “2004). Some of the Example compounds were also tested for activity against clinical isolates of various bacterial species.”
as §3

[15] = test system: Haemophilus influenzae ATCC 49247; assay: MIC testing, various bacteria; format: cell-based; details: ATCC49247
Procedure: as §2
as §1, with “Compounds” for “Minimum Inhibitory Concentration (MIC) Testing Compounds”, “2004).” for “2004). Some of the Example compounds were also tested for activity against clinical isolates of various bacterial species.”
as §3

[16] = test system: Enterococcus faecalis (VRE) ATCC 51299; assay: MIC testing, various bacteria; format: cell-based
Procedure: as §2
as §1, with “Compounds” for “Minimum Inhibitory Concentration (MIC) Testing Compounds”, “2004).” for “2004). Some of the Example compounds were also tested for activity against clinical isolates of various bacterial species.”
as §3

[17] = test system: Staphylococcus haemolyticus ATCC 29970; assay: MIC testing, various bacteria; format: cell-based; details: ATCC29970
Procedure: as §2
as §1, with “Compounds” for “Minimum Inhibitory Concentration (MIC) Testing Compounds”, “2004).” for “2004). Some of the Example compounds were also tested for activity against clinical isolates of various bacterial species.”
as §3

[18] = test system: Streptococcus agalactiae ATCC 13813; assay: MIC testing, various bacteria; format: cell-based; details: ATCC13813
Procedure: as §2
as §1, with “Compounds” for “Minimum Inhibitory Concentration (MIC) Testing Compounds”, “2004).” for “2004). Some of the Example compounds were also tested for activity against clinical isolates of various bacterial species.”
as §3

[19] = test system: Streptococcus pneumoniae ATCC 49619; assay: MIC testing, various bacteria; format: cell-based; details: ATCC49619
Procedure: as §2
as §1, with “Compounds” for “Minimum Inhibitory Concentration (MIC) Testing Compounds”, “2004).” for “2004). Some of the Example compounds were also tested for activity against clinical isolates of various bacterial species.”
as §3

Work on `CCNC(=O)Nc1nc2cc(-c3cc(C)n(Cc4cccnc4)c(=O)c3)c(F)cc2s1` [Example 49, 1-ethyl-3-(6-fluoro-5-(6-methyl-2-oxo-1-(pyridin-3-ylmethyl)-1,2-dihydropyridin-4-yl)benzo[d]thiazol-2-yl)urea] yielded an MIC90 [1] of 0.03 µg/mL (≈ 0.0686 µM), an MIC range [1] of 8 to 60 ng/mL and an MIC90 [2] of 0.015 µg/mL (≈ 0.0343 µM). It also gave an MIC range [2] of 8 to 30 ng/mL, an MIC90 [3] of 0.25 µg/mL (≈ 0.571 µM) and an MIC range [3] of 0.06 to 0.5 µg/mL. For the same compound, the MIC range [4] was 1 µg/mL (≈ 2.29 µM), the MIC90 ([4]; Cutibacterium acnes) was 1 µg/mL (≈ 2.29 µM) and the MIC90 [5] was 0.5 µg/mL (≈ 1.14 µM). The MIC range [5] was 0.25 to 0.5 µg/mL, the MIC90 [6] was 0.06 µg/mL (≈ 0.137 µM) and the MIC range [6] was 0.03 to 0.12 µg/mL. It also gave an MIC90 [7] of 0.25 µg/mL (≈ 0.571 µM), an MIC range [7] of 0.12 to 0.5 µg/mL and an MIC [8] of 0.25 to 1 µg/mL (≈ 0.571 to 2.29 µM).

With `CCNC(=O)Nc1nc2cc(-c3cccnc3)c(F)cc2s1` [Example 4, 1-Ethyl-3-(6-fluoro-5-pyridin-3-yl-benzothiazol-2-yl)-urea] the melting point was 199.1 °C and the MIC [8] was 0.25 to 1 µg/mL (≈ 0.79 to 3.16 µM).

With `CCNC(=O)Nc1nc2cc(-c3ccn(C)c(=O)c3)ccc2s1` [Example 3, 1-Ethyl-3-(5-(1-methyl-2-oxo-1,2-dihydro-pyridin-4-yl)-benzothiazol-2-yl)urea] the MIC [9] was 2 to 16 µg/mL (≈ 6.09 to 48.7 µM), the MIC [10] was 0.25 to 1 µg/mL (≈ 0.761 to 3.05 µM) and the MIC [11] was 0.25 to 1 µg/mL (≈ 0.761 to 3.05 µM). For the same compound, the MIC [12] was 0.25 to 1 µg/mL (≈ 0.761 to 3.05 µM), the MIC [13] was 0.25 to 1 µg/mL (≈ 0.761 to 3.05 µM) and the MIC [14] was 0.25 to 1 µg/mL (≈ 0.761 to 3.05 µM). For the same compound, the MIC [15] was 2 to 16 µg/mL (≈ 6.09 to 48.7 µM), the MIC [16] was 2 to 16 µg/mL (≈ 6.09 to 48.7 µM) and the MIC [17] was 0.25 to 1 µg/mL (≈ 0.761 to 3.05 µM). The MIC [18] was 0.25 to 1 µg/mL (≈ 0.761 to 3.05 µM), the MIC [19] was < 0.25 µg/mL and the MIC [8] was 0.25 to 1 µg/mL (≈ 0.761 to 3.05 µM).
